{"source": "patent US12507721B2", "about": "“Ready-to-use parenteral nutrition formulation” (BAXTER INTERNATIONAL INC., priority 2021, dated 2025)", "format_in_all_cases": "physicochemical", "key": {"[1]": {"assay": "Stability of vitamin B12 during sterilization at different C0", "conditions": "Batch 3 (5% lipid emulsion); C0=120 min", "description": "Therefore, in a first step, exemplary glucose solutions and lipid emulsions each containing vitamin B12 were submitted to different amounts of C0 during the sterilization step to analyze the impact of C0 on the stability of vitamin B12. Several C0 values were targeted and a wide range, from 20 min to 120 min, was screened to understand the correlation between C0 and the degradation of vitamin B12 in different media. Bags of lipid emulsion were produced, wherein the 5% olive-based emulsion contained vitamin B12 (cyanocobalamin form) at a concentration of 1 dd in 25 mL and, in one case, EDTA in a concentration of 0.1% w/v of the final emulsion (see Table 6). […] The heat sensitivity of the vitamin was assessed through the analysis of the respective degradation profile. […]\nThe solutions were analyzed unsterilized and sterilized for each cycle. […]\nBags were then analyzed at the respective points in time to evaluate the impact on the degradation of vitamin B12. The quantitative determination of vitamin B12 in the form of cyano- and hydroxocobalamins was done by Ultra Performance Liquid Chromatography (UPLC), which separates components of a solution by partitioning of the analytes between a mobile liquid phase and a […] (reversed phase mode). […]"}, "[2]": {"assay": "Vitamin stability in 35% glucose solution during sterilization and storage", "conditions": "35% glucose solution; for T1M40° C. concentration: 1 month at 40° C.; for T3M40° C. concentration: 3 months at 40° C.; for T6M40° C. concentration: 6 months at 40° C., B12 value (*) is the sum of cyanocobalamin and hydroxocobalamin", "description": "(§1) For testing the stability of vitamin B12 in formulation as they are typically used in parenteral nutrition, a 35% glucose solution, a 14.2% amino acid formulation such as found, for example, in Olimel N9E (Baxter), and a 20% lipid emulsion such as found in Clinoleic 20% (Baxter) were supplemented with different vitamin combinations which always included vitamin B12. KCl was added into the glucose solution to understand if it has an effect on the stability of vitamin B12. Vitamin B1 was introduced as thiamin HCl. Ascorbyl palmitate was added to the lipid emulsion formulation as a stabilizing agent due to its antioxidant properties. In addition, two separate micellar solutions (“Vit A” and “Vit B”, see Table 9) comprising certain vitamins to be assessed with regard to degradation (B3, B6, B8, B9, B12, C) but formulated with different excipients as micellization agents were tested for vitamin B12 stability. Vit A consisted of a solution of mixed micelles with ascorbyl palmitate as a potential stability enhancer. Vit B was formulated with a mix of polysorbates, PEG and sorbitol to form micelles. The micellar solutions were prepared by mixing, under high speed, a solution composed of glycocholic acid and lecithins dissolved in water. In case of Vit B, the glycocholic acid and lecithin were replaced by PEG and polysorbate. All formulations were provided in standard flexible containers and overpouched with an aluminum overpouch for subsequent sterilization. For an overview over formulations and conditions see Table 9.\n(§2) All samples were submitted to two different sterilization technologies. Steam sterilization targeting a F0=8 min was used for large volumes (400/800 ml, Cycle 2) and for small volumes (25/50 ml, Cycle 1) as lined out in Table 9 above. The same samples were sterilized by water spray sterilization with a serial tower continuous sterilization equipment with two different exposure times (Cycles 3 (25 min.) and 4 (19 min.)).\n(§3) The vitamin recovery was then compared between the different sterilization cycles and formulations to understand the impact of the formulation and the sterilization technology used on their respective short- and long-term stability. Therefore, after sterilization, the samples were stored at 40° C./25% RH for 6 months to evaluate the recovery of vitamin B12 at T1M, T3M and T6M. Besides, backup samples were stored at 5° C. Finally, some samples were also stored at 25° C./40% RH to provide for real time stability data."}, "[3]": {"assay": "Vitamin B12 stability in 20% lipid emulsion during sterilization and storage", "conditions": "for T1M40° C. concentration: 1 month at 40° C.; for T6M40° C. concentration: 6 months at 40° C., sum of cyanocobalamin and hydroxocobalamin", "description": "as §1, §2, §3\nVitamin B12 was also considerably degraded in the lipid emulsion (Tables 12 through 15). […] The instability of vitamin B12 in the standard lipid emulsions is probably linked to the presence of ascorbyl palmitate, which is generally present as an antioxidant. It should thus be avoided in formulations according to the invention."}, "[4]": {"conditions": "25 ml, Cycle 1 steam sterilization"}, "[5]": {"conditions": "800 ml, Cycle 2 steam sterilization"}, "[6]": {"conditions": "800 ml, Cycle 3 water spray sterilization"}, "[7]": {"conditions": "800 ml, Cycle 4 water spray sterilization"}}, "note": "Marks after values point to notes of the source that are not given here.", "data": [{"substance": "cobalamin [Batch B12]", "values": [{"measurement": "degradation of the total sum of vitamin B12", "setting": "[1]", "value": "about 35%"}, {"measurement": "Unsterilized T0 concentration", "setting": "[2]; 25 ml (Table 10A)", "value": 0.0062, "unit": "mg/L"}, {"measurement": "T1M40° C. concentration", "setting": "[2]; [4]", "value": 0.0045, "unit": "mg/L"}, {"measurement": "T3M40° C. concentration", "setting": "[2]; [4]", "value": 0.0037, "unit": "mg/L"}, {"measurement": "Unsterilized T0 concentration", "setting": "[2]; 800 ml (Table 10B)", "value": 0.0062, "unit": "mg/L"}, {"measurement": "Unsterilized T0 concentration", "setting": "[2]; 800 ml (Table 11A)", "value": 0.006, "unit": "mg/L"}, {"measurement": "Unsterilized T0 concentration", "setting": "[2]; 800 ml (Table 11B)", "value": 0.006, "unit": "mg/L"}, {"measurement": "T1M40° C. concentration", "setting": "[2]; [5]", "value": 0.0040, "unit": "mg/L"}, {"measurement": "T3M40° C. concentration", "setting": "[2]; [5]", "value": 0.0036, "unit": "mg/L"}, {"measurement": "Cycle 3 T0 concentration", "setting": "[2]; 800 ml, Cycle 3 water spray sterilization, C0 = 25 minutes, after sterilization", "value": 0.0051, "unit": "mg/L"}, {"measurement": "T3M40° C. concentration", "setting": "[2]; [6]", "value": 0.0041, "unit": "mg/L"}, {"measurement": "T6M40° C. concentration", "setting": "[2]; [6]", "value": "0.0023* mg/L"}, {"measurement": "Cycle 4 T0 concentration", "setting": "[2]; 800 ml, Cycle 4 water spray sterilization, C0 = 19 minutes, after sterilization", "value": 0.0052, "unit": "mg/L"}, {"measurement": "T3M40° C. concentration", "setting": "[2]; [7]", "value": 0.0041, "unit": "mg/L"}, {"measurement": "T6M40° C. concentration", "setting": "[2]; [7]", "value": "0.0031* mg/L"}, {"measurement": "Unsterilized T0 concentration", "setting": "[3]; 20% lipid emulsion (Table 14)", "value": 0.014, "unit": "mg/L"}, {"measurement": "Unsterilized T0 concentration", "setting": "[3]; 20% lipid emulsion (Table 15)", "value": 0.014, "unit": "mg/L"}, {"measurement": "Unsterilized T0 concentration", "setting": "[3]; 20% lipid emulsion with ascorbyl palmitate (Table 12)", "value": 0.015, "unit": "mg/L"}, {"measurement": "T1M40° C. concentration", "setting": "[3]; 20% lipid emulsion, Cycle 1 steam sterilization", "value": 0.004, "unit": "mg/L"}, {"measurement": "T3M40° C. concentration", "setting": "[3]; 20% lipid emulsion, Cycle 1 steam sterilization, 3 months at 40° C.", "value": "<LOD"}, {"measurement": "T1M40° C. concentration", "setting": "[3]; 20% lipid emulsion, Cycle 2 steam sterilization", "value": "<LOD"}, {"measurement": "Cycle 2 T0 concentration", "setting": "[3]; 20% lipid emulsion, Cycle 2 steam sterilization, after sterilization", "value": 0.005, "unit": "mg/L"}, {"measurement": "T6M40° C. concentration", "setting": "[3]; 20% lipid emulsion, Cycle 3 water spray sterilization (Table 14)", "value": "0.0037* mg/L"}, {"measurement": "Cycle 3 T0 concentration", "setting": "[3]; 20% lipid emulsion, Cycle 3 water spray sterilization (Table 14), after sterilization", "value": 0.005, "unit": "mg/L"}, {"measurement": "T6M40° C. concentration", "setting": "[3]; 20% lipid emulsion, water spray sterilization (Table 15, head: Cycle 3)", "value": "0.0055* mg/L"}, {"measurement": "Cycle 3 T0 concentration", "setting": "[3]; 20% lipid emulsion, water spray sterilization with serial tower continuous sterilization equipment (Table 15, head: Cycle 3), after sterilization", "value": 0.006, "unit": "mg/L"}]}]}
